From article PMC8780768 (Life, 2022)
Several values for one entry are separate records, joined by “and”; a condition that tells them apart may be missing. Identical values can stand only once. Like-named read-outs stand apart in the source and are kept apart here.

Experiments:
Type in all cases: cell-based
GABA-ρ1 receptors [1] = target: T1, GABA-ρ1 receptors (Homo sapiens, UniProt P24046); assay: Two-electrode voltage-clamp, agonist dose–response at GABA-ρ1 receptors expressed in Xenopus oocytes
T1 construct: expressed in transfected cells; host or cells: Xenopus laevis oocytes injected with cRNA
Procedure: (§1) Ovary lobes were dissected from female Xenopus laevis (South Africa clawed frogs), which were removed as reported previously, in accordance with the National Health and Medical Research Council (NHMRC) of Australia’s ethical guidelines. This procedure is also approved by the University of Sydney’s animal ethics committee (2013/5915). In brief, the females of Xenopus laevis were anaesthetized using 0.17% 3-aminobenzoic acid ethyl ester with 0.02% NaCl for 10–15 min, and a lobe of the ovary was dissected. The lobes were washed with oocyte releasing buffer 2 (OR2: 82.5 mM NaCl, 5 mM HEPES, 2 mM KCl, 1 mM MgCl2.6H2O pH 7.5) and incubated with collagenase A (2 mg·mL^−1 in OR2, Boehringer Mannheim, Mannheim, Germany) for approximately 2 h to separate oocytes from follicular cells and connective tissue. The released oocytes were washed in ND96 solution (96 mM NaCl, 1 mM MgCl2.6H2O, 2 mM KCl, 5 mM HEPES, and 1.8 mM CaCl2 pH 7.5). Stage V–VI oocytes were collected and injected in the cytoplasm using a 15–20 μm diameter tip micropipette (micropipette puller, Sutter Instruments, Novato, CA, USA) and a Nanoject injector (Drummond Scientific Co., Broomall, PA, USA) set to deliver a total of ~15 ng of cRNA.
(§2) The injected oocytes were placed on an oscillator at 18 °C for 2–6 days in ND96 solution, which contained 0.5 mM theophylline, 2.5 mM pyruvate, 50 μg/mL tetracycline, and 50 μg/mL gentamycin.
(§3) The activity of receptors was tested by recording whole cell currents using the two-electrode voltage clamp technique as previously reported. In brief, fabricated microelectrodes prepared with a micropipette puller (Sutter instruments, Novato, CA, USA), were filled with 3 M KCl solution (0.3–2.3 MΩ). Oocytes were immersed with ND96 buffer in the cell chamber at approximately 5 mL/min rate. The microelectrode impaled cells were clamped at −60 mV (voltage), and the currents elicited in response to the application of ligand/s was recorded using a Power Lab 2/25 analogue–digital data acquisition system (AD Instruments, Sydney, NSW, Australia), a Geneclamp 500 B amplifier (Axon Instrument, Foster City, CA, USA), and Lab Chart version 5.0.2 program (ADInstruments, Sydney, Australia).
(§4) Ligands were applied into the perfusate until a peak response (maximal) was reached. All stock solutions of the ligands were freshly made on the day of experiments. Solutions of ligands dissolved in DMSO were standardized to contain less than 0.8% DMSO in the final perfusate solution to prevent any alteration in the recordings. Perfusates containing these ligands (chemicals) were freshly prepared before each application. The dose–response curves of ligands were obtained by increasing the concentrations of applied agonists on oocytes until the maximum current reached. […] All experiments were conducted using at least two batches of oocytes.
(§5) I = Imax [A]^nH / (EC50^nH + [A]^nH)(1) where I is the current response, referring to a known concentration of agonist; Imax is the maximum current obtained; [A] is the agonist concentration; EC50 is the concentration of agonist/partial agonist at which the current response is half maximal; and nH is the Hill coefficient.

GABA-ρ2 receptors [2] = target: T2, GABA-ρ2 receptors (Homo sapiens, UniProt P28476); assay: Two-electrode voltage-clamp, agonist dose–response at GABA-ρ2 receptors expressed in Xenopus oocytes; conditions: for GABA-ρ2 Efficacy: relative to GABA maximal response
T2 construct: expressed in transfected cells; host or cells: Xenopus laevis oocytes injected with cRNA
Procedure: as §1, §2, §3, §4, §5

GABA-ρ1 receptors [3] = target: T1, GABA-ρ1 receptors; assay: Two-electrode voltage-clamp, co-application of ligand with GABA EC50 at GABA-ρ1 receptors (additive/inhibition); conditions: for GABA-ρ1 Additive/Inhibition Hill slope: co-application curve with GABA EC50
Procedure: as §3, §4, §5
(§6) The equations for bell-shaped and biphasic curves are embedded in GraphPad PRISM 8.02.
(§7) A p value < 0.05 was considered statistically significant. […] Significance assigned * if p < 0.05, ** if p < 0.01, *** if p < 0.001 and **** if p < 0.0001.

GABA-ρ2 receptors [4] = target: T2, GABA-ρ2 receptors; assay: Two-electrode voltage-clamp, co-application of ligand with GABA EC50 at GABA-ρ2 receptors (additive/inhibition)
Procedure: as §3, §4, §5, §6, §7

[5] = TEVC, Xenopus oocytes, −60 mV, read-out: GABA-ρ1 EC50
[6] = relative to GABA maximal response
[7] = TEVC, Xenopus oocytes, −60 mV, read-out: GABA-ρ2 EC50
[8] = co-applied with GABA EC50, % of GABA EC50 response
[9] = co-application curve with GABA EC50 (800 nM)
[10] = co-applied with GABA EC50 (800 nM), % of GABA EC50 response
[11] = bell-shaped/biphasic co-application curve with GABA EC50

T2 sequence (P28476 21-465): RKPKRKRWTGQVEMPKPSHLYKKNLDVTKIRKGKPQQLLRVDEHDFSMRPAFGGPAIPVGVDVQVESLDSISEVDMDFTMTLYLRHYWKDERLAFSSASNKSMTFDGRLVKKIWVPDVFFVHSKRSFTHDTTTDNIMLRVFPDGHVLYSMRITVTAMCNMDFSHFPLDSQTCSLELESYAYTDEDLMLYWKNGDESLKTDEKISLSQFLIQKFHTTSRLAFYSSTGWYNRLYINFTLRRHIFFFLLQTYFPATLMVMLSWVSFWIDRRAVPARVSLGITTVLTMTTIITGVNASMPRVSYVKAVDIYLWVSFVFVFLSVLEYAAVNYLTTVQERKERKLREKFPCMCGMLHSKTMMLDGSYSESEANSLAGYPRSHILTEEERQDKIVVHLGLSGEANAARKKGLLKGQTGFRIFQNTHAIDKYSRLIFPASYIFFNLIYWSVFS
T1 sequence (P24046 22-479): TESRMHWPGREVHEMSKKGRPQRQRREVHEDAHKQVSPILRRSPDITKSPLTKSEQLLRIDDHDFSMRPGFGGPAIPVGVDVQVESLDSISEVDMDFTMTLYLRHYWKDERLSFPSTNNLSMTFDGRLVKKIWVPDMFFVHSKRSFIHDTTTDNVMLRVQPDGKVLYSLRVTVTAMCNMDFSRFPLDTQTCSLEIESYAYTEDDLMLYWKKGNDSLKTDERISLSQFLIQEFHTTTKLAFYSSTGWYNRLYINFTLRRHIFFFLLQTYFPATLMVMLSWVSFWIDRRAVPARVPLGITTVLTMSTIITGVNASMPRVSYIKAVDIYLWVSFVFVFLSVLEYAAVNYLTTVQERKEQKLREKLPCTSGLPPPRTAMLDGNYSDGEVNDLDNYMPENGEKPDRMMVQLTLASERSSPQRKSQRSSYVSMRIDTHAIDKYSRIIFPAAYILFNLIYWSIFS

NCCCCC(=O)O [5-Aminovaleric acid, 5-amino valeric acid]
EC50 (GABA-ρ1 receptors [1]; [5]): 600 µM
GABA-ρ1 Efficacy (GABA-ρ1 receptors [1]; [6]): 3%
EC50 (GABA-ρ2 receptors [2]; [7]): 36 µM
GABA-ρ2 Efficacy (GABA-ρ2 receptors [2]): 45%
IC50 (GABA-ρ1 receptors [3]): 35 µM
GABA-ρ1 Additive/Inhibition Hill slope (GABA-ρ1 receptors [3]): 3 ± 0.75
GABA-ρ1 Additive (%) (GABA-ρ1 receptors [3]; [8]): 125%
IC50 (GABA-ρ2 receptors [4]): 10 µM
GABA-ρ2 Additive/Inhibition Hill slope (GABA-ρ2 receptors [4]; [9]): 0.6 ± 0.48
GABA-ρ2 Additive (%) (GABA-ρ2 receptors [4]; [10]): 110%
% of GABA EC50 response when co-applied with 1 µM ligand (GABA-ρ2 receptors [4]; oocytes): 92%
% of GABA EC50 response when co-applied with 100 µM ligand (GABA-ρ2 receptors [4]; oocytes): 51.1%

NC/C=C\C(=O)O [CACA]
GABA-ρ1 Efficacy (GABA-ρ1 receptors [1]): 60%
EC50 (GABA-ρ1 receptors [1]; [5]): 93 ± 5.2 µM
EC50 (GABA-ρ2 receptors [2]; [7]): 37 ± 12 µM
GABA-ρ2 Efficacy (GABA-ρ2 receptors [2]): 60%
GABA-ρ1 Additive (%) (GABA-ρ1 receptors [3]): 160%
GABA-ρ1 Additive/Inhibition Hill slope (GABA-ρ1 receptors [3]): 0.9 ± 0.44
effect on GABA EC50 response when co-applied with 1 mM ligand (GABA-ρ2 receptors [4]; GABA-ρ2, GABA EC50, ligand 1 mM, data not shown): does not show any significant effect

NCCCC(=O)O [GABA]
EC50 (GABA-ρ2 receptors [2]; TEVC, Xenopus oocytes, read-out: GABA-ρ2 EC50): 0.8 µM

NCC(=O)O [Glycine, glycine]
EC50 (GABA-ρ1 receptors [1]; [5]): ~1000 µM
GABA-ρ1 Efficacy (GABA-ρ1 receptors [1]; [6]): 25%
EC50 (GABA-ρ2 receptors [2]; [7]): ~1000 µM
GABA-ρ2 Efficacy (GABA-ρ2 receptors [2]): 70%
GABA-ρ1 Additive (%) (GABA-ρ1 receptors [3]; [8]): 170%
% of GABA EC50 response when co-applied with 1 µM ligand (GABA-ρ2 receptors [4]): does not show a significant effect
% of GABA EC50 response when co-applied with 100 µM ligand (GABA-ρ2 receptors [4]): 115.4% and 115%
GABA-ρ2 Additive (%) (GABA-ρ2 receptors [4]): 115%
GABA-ρ2 Additive/Inhibition nH1 (GABA-ρ2 receptors [4]; [11]): 1.8 ± 0.3
GABA-ρ2 Additive/Inhibition nH2 (GABA-ρ2 receptors [4]; [11]): 1.7 ± 0.5

O=C(O)Cc1c[nH]cn1 [Imidazole-4-acetic acid, imidazole-4-acetic acid]
EC50 (GABA-ρ1 receptors [1]): 66 µM
GABA-ρ1 Efficacy (GABA-ρ1 receptors [1]; [6]): 10%
EC50 (GABA-ρ2 receptors [2]): 0.2 µM
GABA-ρ2 Efficacy (GABA-ρ2 receptors [2]): 40%
efficacy at GABA-ρ2 receptors, fold higher than at GABA-ρ1 receptors (GABA-ρ2 receptors [2]; ρ2 versus ρ1): 100 fold
potency at GABA-ρ2 receptors, fold higher than at GABA-ρ1 receptors (GABA-ρ2 receptors [2]; ρ2 versus ρ1): 4 fold
IC50 (GABA-ρ1 receptors [3]): 0.8 µM
GABA-ρ1 Additive/Inhibition Hill slope (GABA-ρ1 receptors [3]): 1.3 ± 0.22
GABA-ρ1 Additive (%) (GABA-ρ1 receptors [3]; [8]): 115%
GABA-ρ2 Additive (%) (GABA-ρ2 receptors [4]): 110%
GABA-ρ2 Additive/Inhibition Hill slope (GABA-ρ2 receptors [4]): 0.87 ± 0.39
IC50 (GABA-ρ2 receptors [4]): 2.4 µM
% of GABA EC50 response when co-applied with 1 µM ligand (GABA-ρ2 receptors [4]; oocytes): 94.2 ± 1.4%
% of GABA EC50 response when co-applied with 10 µM ligand (GABA-ρ2 receptors [4]; oocytes): 86.25 ± 3.5%

O=C(O)C1=CCNCC1 [Isoguvacine, isoguvacine]
EC50 (GABA-ρ1 receptors [1]; [5]): 205 µM
GABA-ρ1 Efficacy (GABA-ρ1 receptors [1]; [6]): 40%
efficacy at GABA-ρ1 receptors, fold higher than at GABA-ρ2 receptors (GABA-ρ1 receptors [1]; ρ1 versus ρ2): two-fold
EC50 (GABA-ρ2 receptors [2]; [7]): 35 µM
GABA-ρ2 Efficacy (GABA-ρ2 receptors [2]): 25%
potency at GABA-ρ2 receptors, fold higher than at GABA-ρ1 receptors (GABA-ρ2 receptors [2]; ρ2 versus ρ1): six-fold
GABA-ρ1 Additive/Inhibition Hill slope (GABA-ρ1 receptors [3]): 0.57 ± 0.25
GABA-ρ1 Additive (%) (GABA-ρ1 receptors [3]; [8]): 135%
GABA-ρ2 Additive/Inhibition Hill slope (GABA-ρ2 receptors [4]; [9]): 0.37 ± 3.1
GABA-ρ2 Additive (%) (GABA-ρ2 receptors [4]; [10]): 120%
% of GABA EC50 response when co-applied with 1 µM ligand (GABA-ρ2 receptors [4]; oocytes): 106.8 ± 2.5%
% of GABA EC50 response when co-applied with 10 µM ligand (GABA-ρ2 receptors [4]; oocytes): 110 ± 4.3%

NCc1cc(=O)[nH]o1 [Muscimol, muscimol]
EC50 (GABA-ρ1 receptors [1]): 1.25 µM
GABA-ρ1 Efficacy (GABA-ρ1 receptors [1]; [6]): 80%
EC50 (GABA-ρ2 receptors [2]): 0.65 µM
GABA-ρ2 Efficacy (GABA-ρ2 receptors [2]): 65%
GABA-ρ1 Additive (%) (GABA-ρ1 receptors [3]; [8]): 125%
GABA-ρ2 Additive (%) (GABA-ρ2 receptors [4]): 112%
GABA-ρ2 Additive/Inhibition Hill slope (GABA-ρ2 receptors [4]): 0.14 ± 0.48
% of GABA EC50 response when co-applied with 1 µM ligand (GABA-ρ2 receptors [4]; oocytes): 106.9 ± 1.1%
% of GABA EC50 response when co-applied with 10 µM ligand (GABA-ρ2 receptors [4]; oocytes): 107.9 ± 3.1%

NC/C=C/C(=O)O [TACA]
GABA-ρ1 Efficacy (GABA-ρ1 receptors [1]): 95%
EC50 (GABA-ρ1 receptors [1]; [5]): 0.6 µM
EC50 (GABA-ρ2 receptors [2]; [7]): 0.45 ± 0.4 µM
GABA-ρ2 Efficacy (GABA-ρ2 receptors [2]): 85%
GABA-ρ1 Additive (%) (GABA-ρ1 receptors [3]): 190%
GABA-ρ1 Additive/Inhibition Hill slope (GABA-ρ1 receptors [3]): 0.9 ± 0.08
GABA-ρ2 Additive/Inhibition Hill slope (GABA-ρ2 receptors [4]; [9]): 0.8 ± 0.46
GABA-ρ2 Additive (%) (GABA-ρ2 receptors [4]; [10]): 140%
% of GABA EC50 response when co-applied with 1 µM ligand (GABA-ρ2 receptors [4]; oocytes): 118.4%
% of GABA EC50 response when co-applied with 10 µM ligand (GABA-ρ2 receptors [4]; oocytes): 137.5%

NCCC(=O)O [β-Alanine, β-alanine]
EC50 (GABA-ρ1 receptors [1]): 400 µM
GABA-ρ1 Efficacy (GABA-ρ1 receptors [1]; [6]): 30%
EC50 (GABA-ρ2 receptors [2]): 560 µM
GABA-ρ2 Efficacy (GABA-ρ2 receptors [2]): 85%
GABA-ρ1 Additive/Inhibition Hill slope (GABA-ρ1 receptors [3]): 1.5 ± 0.8
GABA-ρ1 Additive (%) (GABA-ρ1 receptors [3]; [8]): 120%
% of GABA EC50 response when co-applied with 100 µM ligand (GABA-ρ2 receptors [4]; GABA-ρ2, GABA EC50 800 nM, ligand 100 µM): no significant effect
GABA-ρ2 Additive/Inhibition nH2 (GABA-ρ2 receptors [4]; [11]): 1.6 ± 0.36
GABA-ρ2 Additive (%) (GABA-ρ2 receptors [4]; [10]): 120%
% of GABA EC50 response when co-applied with 1 µM ligand (GABA-ρ2 receptors [4]; oocytes): 108.9%
